Read-outs that look alike come from different tables or passages of the source.
How the values were obtained:
Gram-positive bacteria = assay: Geometric mean MIC and therapeutic index, Gram-positive bacteria; assay type: cell-based; conditions: Gram-positive bacteria; for GM G+ (geometric mean of the MIC values): MH broth, MIC >50 µg/mL counted as 100 µg/mL; for Therapeutic Index (TI) G+: HC10/GM
Description: In this study, we aimed to investigate the potential of W5K series peptides for therapeutic use. To evaluate their efficacy for antibacterial therapy, we used the Therapeutic Index (TI) as a measure of their cell selectivity. The TI was calculated as the ratio of the concentration causing 10% hemolysis of human red blood cells (HC10) to the geometric mean minimum inhibitory concentration (GM) of the peptides against both Gram-negative and Gram-positive bacteria. This parameter was used to quantitatively assess the balance between antibacterial potency and cytotoxicity among the W5K derivatives.
(§1) The antibacterial activities of the peptides in Müller-Hinton (MH) broth and modified LYM broth were determined using the standard broth microdilution method as per Clinical and Laboratory Standards Institute (CLSI) guidelines. The LYM broth was prepared with specific components and adjusted to different conditions, including varying concentrations of NaCl and MgCl2, and different pH levels. To prepare the LYM broth, 5.4 mM KCl, 5.6 mM Na2HPO4, 0.5 mM MgSO4, and 1.0 mM sodium citrate were added. Additionally, 0.4 mg of ZnCl2, 2.0 mg of FeCl3·6H2O, 0.1 mg of CuSO4·5H2O, 0.1 mg of MnSO4·H2O, 0.1 mg of Na2B4O7∙10H2O, 700 mg of amino acid mixtures without tryptophan (Takara Bio Inc., San Jose, CA, USA), and 20 mg of L-tryptophan were added per liter of medium. The pH was adjusted to 7.4, and a vitamin mixture (100X, Sigma) and glucose concentration of 2% were added. For different conditions of LYM broth, NaCl concentrations of 300, 200, 150, and 50 mM, MgCl2 concentrations of 2.5, 1.5, and 0.5 mM, and pH levels of 6.5, 5.5, and 4.5 were adjusted. Bacterial strains were incubated in MH broth overnight, regrown, and diluted to a final concentration of 5 × 10^5 CFU/mL. Peptides were added to each well at final concentrations of 50, 25, 12.5, 6.25, 3.13, 1.56, and 0.78 µg/mL, and 99 µL of diluted microbes was loaded into each well of a polypropylene 96-well plate. […] The Morpheus HeatMap software (https://software.broadinstitute.org/morpheus/) was used to display MIC values on a color scale. All experiments were independently repeated three times.

S. aureus ATCC 33592 = test system: S. aureus ATCC 33592
Description: The antibacterial and salt-resistant activity of the peptides was tested using Escherichia coli (ATCC 25922), Pseudomonas aeruginosa Migula (ATCC 27853), Acinetobacter sp. (BCRC number 14B0091, BCRC number 14B0097, and BCRC number 14B0100), and Staphylococcus aureus sp. strains (ATCC 25923, ATCC 33591, ATCC 33592, ATCC 33593, and ATCC 6538). All bacteria were obtained from the Food Industry Research and Development Institute (Hsinchu, Taiwan) and cultured in sterilized Müller-Hinton (MH) broth at 37 °C and 200 rpm for 8 h. The inoculum concentrations were determined by measuring the optical density at 600 nm (OD 600 = 1, approximately 10^8 CFU/mL) using an Ultrospec 2100 pro UV-Visible spectrophotometer (Biochrom Ltd., Cambridge, UK) after 8 h of culture.
as §1, with “For different conditions of LYM broth, NaCl concentrations of 300, 200, 150, and 50 mM, MgCl2 concentrations of 2.5, 1.5, and 0.5 mM, and pH levels of 6.5, 5.5, and 4.5 were adjusted.” left out

S. aureus ATCC 33593 = test system: S. aureus ATCC 33593
How it was run: (§2)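 MICs came from CLSI broth microdilution, with 5 × 10^5 CFU/mL bacteria exposed to peptide at final 0.78–50 µg/mL. Media were MH broth or LYM broth (pH 7.4), the latter also adjusted for salt (NaCl 50–300 mM, MgCl2 0.5–2.5 mM) or acidity (pH 4.5–6.5); triplicate independent experiments.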

S. aureus ATCC 33591 = test system: S. aureus ATCC 33591
How it was run: as §2

[1] = test system: A. baumannii 14B00100 (Acinetobacter sp., BCRC number 14B0100)
How it was run: as §2

[2] = LYM broth, 0 mM NaCl, 16 h, 37 °C
[3] = LYM broth, 50 mM NaCl, 16 h, 37 °C
[4] = LYM broth, 100 mM NaCl, 16 h, 37 °C
[5] = LYM broth, 200 mM (NaCl), 16 h, 37 °C
[6] = LYM broth, 300 mM (NaCl), 16 h, 37 °C
[7] = MH broth, 5 × 10^5 CFU/mL, 16 h, 37 °C, repeated three times

Ac-KKWRKWLKWLAKK-NH2 [W5K/A9W]
GM G+ (geometric mean of the MIC values) (Gram-positive bacteria): 8.2 µg/mL
Therapeutic Index (TI) G+ (Gram-positive bacteria): 3.6
MIC (S. aureus ATCC 33592; [2]): 3.13 µg/mL
MIC (S. aureus ATCC 33592; LYM broth, 0.5 mM MgCl2): 3.13 µg/mL
MIC (S. aureus ATCC 33592; LYM broth, 1.5 mM MgCl2): 3.13 µg/mL
MIC (S. aureus ATCC 33592; LYM broth, 2.5 mM MgCl2): 3.13 µg/mL
MIC (S. aureus ATCC 33592; [3]): 3.13 µg/mL
MIC (S. aureus ATCC 33592; [4]): 3.13 µg/mL
MIC (S. aureus ATCC 33592; [5]): 6.25 µg/mL
MIC (S. aureus ATCC 33592; [6]): 12.5 µg/mL
MIC (S. aureus ATCC 33592; LYM broth, pH 4.5): 3.13 µg/mL
MIC (S. aureus ATCC 33592; LYM broth, pH 5.5): 3.13 µg/mL
MIC (S. aureus ATCC 33592; LYM broth, pH 6.5): 3.13 µg/mL
MIC (S. aureus ATCC 33592; [7]): 12.5 µg/mL
MIC (S. aureus ATCC 33593; [2]): 3.13 µg/mL
MIC (S. aureus ATCC 33593; LYM broth, 0.5 mM MgCl2): 3.13 µg/mL
MIC (S. aureus ATCC 33593; LYM broth, 1.5 mM MgCl2): 3.13 µg/mL
MIC (S. aureus ATCC 33593; LYM broth, 2.5 mM MgCl2): 3.13 µg/mL
MIC (S. aureus ATCC 33593; [3]): 3.13 µg/mL
MIC (S. aureus ATCC 33593; [4]): 3.13 µg/mL
MIC (S. aureus ATCC 33593; [5]): 6.25 µg/mL
MIC (S. aureus ATCC 33593; [6]): 12.5 µg/mL
MIC (S. aureus ATCC 33593; LYM broth, pH 4.5): 3.13 µg/mL
MIC (S. aureus ATCC 33593; LYM broth, pH 5.5): 3.13 µg/mL
MIC (S. aureus ATCC 33593; LYM broth, pH 6.5): 3.13 µg/mL
MIC (S. aureus ATCC 33593; [7]): 12.5 µg/mL
MIC (S. aureus ATCC 33591; [2]): 3.13 µg/mL
MIC (S. aureus ATCC 33591; LYM broth, 0.5 mM MgCl2): 3.13 µg/mL
MIC (S. aureus ATCC 33591; LYM broth, 1.5 mM MgCl2): 3.13 µg/mL
MIC (S. aureus ATCC 33591; LYM broth, 2.5 mM MgCl2): 3.13 µg/mL
MIC (S. aureus ATCC 33591; [3]): 3.13 µg/mL
MIC (S. aureus ATCC 33591; [4]): 6.25 µg/mL
MIC (S. aureus ATCC 33591; [5]): 6.25 µg/mL
MIC (S. aureus ATCC 33591; [6]): 12.5 µg/mL
MIC (S. aureus ATCC 33591; LYM broth, pH 4.5): 3.13 µg/mL
MIC (S. aureus ATCC 33591; LYM broth, pH 5.5): 3.13 µg/mL
MIC (S. aureus ATCC 33591; LYM broth, pH 6.5): 3.13 µg/mL
MIC (S. aureus ATCC 33591; [7]): 12.5 µg/mL
MIC [1, 2]: 1.56 µg/mL
MIC ([1]; LYM broth, 0.5 mM MgCl2): 1.56 µg/mL
MIC ([1]; LYM broth, 1.5 mM MgCl2): 1.56 µg/mL
MIC ([1]; LYM broth, 2.5 mM MgCl2): 1.56 µg/mL
MIC [1, 3]: 1.56 µg/mL
MIC [1, 4]: 1.56 µg/mL
MIC [1, 5]: 1.56 µg/mL
MIC [1, 6]: 1.56 µg/mL
MIC ([1]; LYM broth, pH 4.5): 1.56 µg/mL
MIC ([1]; LYM broth, pH 5.5): 1.56 µg/mL
MIC ([1]; LYM broth, pH 6.5): 1.56 µg/mL
MIC [1, 7]: 1.56 µg/mL

Ac-KWLAKKKKWRKWL-NH2 [Peptide W5K07]
GM G+ (geometric mean of the MIC values) (Gram-positive bacteria): 87.1 µg/mL
Therapeutic Index (TI) G+ (Gram-positive bacteria): 1.2
MIC (S. aureus ATCC 33592; [2]): 25 µg/mL
MIC (S. aureus ATCC 33592; LYM broth, 0.5 mM MgCl2): 25 µg/mL
MIC (S. aureus ATCC 33592; LYM broth, 1.5 mM MgCl2): 25 µg/mL
MIC (S. aureus ATCC 33592; LYM broth, 2.5 mM MgCl2): 25 µg/mL
MIC (S. aureus ATCC 33592; [3]): 25 µg/mL
MIC (S. aureus ATCC 33592; [4]): 50 µg/mL
MIC (S. aureus ATCC 33592; [5]): >50 µg/mL
MIC (S. aureus ATCC 33592; [6]): >50 µg/mL
MIC (S. aureus ATCC 33592; LYM broth, pH 4.5): 25 µg/mL
MIC (S. aureus ATCC 33592; LYM broth, pH 5.5): 25 µg/mL
MIC (S. aureus ATCC 33592; LYM broth, pH 6.5): 12.5 µg/mL
MIC (S. aureus ATCC 33592; [7]): >50 µg/mL
MIC (S. aureus ATCC 33593; [2]): 25 µg/mL
MIC (S. aureus ATCC 33593; LYM broth, 0.5 mM MgCl2): 25 µg/mL
MIC (S. aureus ATCC 33593; LYM broth, 1.5 mM MgCl2): 25 µg/mL
MIC (S. aureus ATCC 33593; LYM broth, 2.5 mM MgCl2): 25 µg/mL
MIC (S. aureus ATCC 33593; [3]): 25 µg/mL
MIC (S. aureus ATCC 33593; [4]): 50 µg/mL
MIC (S. aureus ATCC 33593; [5]): 50 µg/mL
MIC (S. aureus ATCC 33593; [6]): >50 µg/mL
MIC (S. aureus ATCC 33593; LYM broth, pH 4.5): 25 µg/mL
MIC (S. aureus ATCC 33593; LYM broth, pH 5.5): 12.5 µg/mL
MIC (S. aureus ATCC 33593; LYM broth, pH 6.5): 12.5 µg/mL
MIC (S. aureus ATCC 33593; [7]): >50 µg/mL
MIC (S. aureus ATCC 33591; [2]): 25 µg/mL
MIC (S. aureus ATCC 33591; LYM broth, 0.5 mM MgCl2): 25 µg/mL
MIC (S. aureus ATCC 33591; LYM broth, 1.5 mM MgCl2): 25 µg/mL
MIC (S. aureus ATCC 33591; LYM broth, 2.5 mM MgCl2): 25 µg/mL
MIC (S. aureus ATCC 33591; [3]): 25 µg/mL
MIC (S. aureus ATCC 33591; [4]): 50 µg/mL
MIC (S. aureus ATCC 33591; [5]): 50 µg/mL
MIC (S. aureus ATCC 33591; [6]): >50 µg/mL
MIC (S. aureus ATCC 33591; LYM broth, pH 4.5): 25 µg/mL
MIC (S. aureus ATCC 33591; LYM broth, pH 5.5): 25 µg/mL
MIC (S. aureus ATCC 33591; LYM broth, pH 6.5): 12.5 µg/mL
MIC (S. aureus ATCC 33591; [7]): >50 µg/mL
MIC [1, 2]: 3.13 µg/mL
MIC ([1]; LYM broth, 0.5 mM MgCl2): 3.13 µg/mL
MIC ([1]; LYM broth, 1.5 mM MgCl2): 3.13 µg/mL
MIC ([1]; LYM broth, 2.5 mM MgCl2): 3.13 µg/mL
MIC [1, 3]: 6.25 µg/mL
MIC [1, 4]: 6.25 µg/mL
MIC [1, 5]: 25 µg/mL
MIC [1, 6]: 50 µg/mL
MIC ([1]; LYM broth, pH 4.5): 3.13 µg/mL
MIC ([1]; LYM broth, pH 5.5): 3.13 µg/mL
MIC ([1]; LYM broth, pH 6.5): 3.13 µg/mL
MIC [1, 7]: 12.5 µg/mL
